Assays:
KB cells = assay: Cell growth inhibition (XTT assay / total cell protein); type: cell-based, human
Method: Cell culture and treatment. KB cells were maintained in folate-free medium containing 10% serum (See, e.g., Quintana et al, Pharm. Res. 19, 1310 (2002)) to provide extracellular FA similar to that found in human serum. Cells were plated in 12-well plates for uptake studies, in 24-well plates for cell growth analysis, and in 96-well plates for XTT assay. Cells were rinsed with FA-free medium containing dialyzed serum and incubated at 37° C. with dendrimer-drug conjugates for the indicated time periods and concentrations. KB cells were also maintained in RPMI medium containing 2 μM FA to obtain cells which express low FAR.
Evaluation of dendrimer cytotoxicity. Cell growth was determined by assay of the total protein in lysates of treated cells using a bicinchoninic acid reagent (PIERCE, and by XTT assay, using a kit from Roche.
Because the binding of the conjugate to KB cells reaches maximal uptake within 1 h (Quintana et al, 2002. Pharmaceutical Research 19: 1310-1316.), the effect of the G5-FI-FA-MTX on cell growth was initially tested by pre-incubation of cells with the conjugate for 1 h, followed by incubation in a drug-free medium for 5 d. […] When the cells were pre-incubated with dendrimers for 4 h, there was a modest decrease of about 10% in cell growth as determined by XTT assay. The cytotoxicity measurements were therefore done by incubation with the dendrimer for a minimum of 24 h, a pre-incubation time period shown to induce significant cytotoxicity.
Time course and dose dependent inhibition of cell growth. Previous studies have shown that MTX-induced cytotoxicity is detectable in vitro only if the medium is completely deprived of FA (See, e.g., Sobrero & Bertino, Int. J. Cell Cloning 4, 51 (1986)). The effect of the trifunctional dendrimers on cell growth was tested in cells incubated in a FA-deficient medium. Cells were treated with 300 nM conjugates (equivalent of 1500 nM MTX) or 1500 nM free MTX for 1-4 days, and cell proliferation was determined by estimation of cellular protein content. Cells were treated for 2 days with different concentrations of the conjugates or free MTX (the conjugate concentration is given as MTX equivalents, with 5 MTX per dendrimer molecule). KB cells which express high and low FAR were incubated with 30 nM of the dendrimers for 1 hr at 37° C., rinsed, and the fluorescence of cells was determined by flow cytometric analysis (See. e.g., FIG. 21, left panel). Pre-incubation with 50 μM free FA for 30 min totally prevents cellular binding and uptake of the polymer conjugates (See. e.g., FIG. 21, left panel).
The inhibition of cell growth induced by the conjugates was also tested by XTT assay which is based on the conversion of XTT to formazan by the active mitochondria of live cells (See, e.g., Roehm et al, J Immunol Methods 142, 257 (1991)).
As growth inhibition induced by free MTX was higher than with the equimolar concentrations of MTX in the G5-FITC-FA-MTX below 1 μM (See, e.g., FIG. 21), it was tested whether the FA moiety in the G5-FITC-FA-MTX may be rescuing the cells from MTX-induced cytotoxicity. As the G5-FITC-FA-MTX preparation contained equimolar concentrations of MTX and FA, the effect of similar concentrations of free MTX and free FA on the inhibition of cell growth was determined. […] The cells were rinsed to remove the drugs and incubated with fresh medium for an additional 6 d, and total cell protein was determined. […]

s.c. human KB xenografts = assay: Targeted drug delivery to tumor, tumor growth and survival; type: in vivo, SCID mice; details: for effect on tumor growth: first trial
Method: Delivery of targeted nanoparticle therapeutic.
Statistical methods. Means, SD, and SE of the data were calculated. Differences between the experimental groups and the control groups were tested using Student's-Newman-Keuls' test and Ps<0.05 were considered significant.
Targeted drug delivery to tumor cells through the folate receptor. The efficacy of different doses of conjugates was tested on SCID CB-17 mice bearing s.c. human KB xenografts and was compared with equivalent and higher doses of free methotrexate. Mice were maintained on the folic acid-deficient diet for 3 weeks before injection of the KB tumor cells to achieve circulating levels of folic acid that approach those in human serum and to prevent down-regulation of folate receptors on tumor xenografts (See, Mathias et al., J Nucl Med 29, 1579 (1998)). Six groups of SCID mice with five mice in each group were injected s.c. on one flank with 5×10^6 KB cells in 0.2 mL PBS suspension. The highest total dose of G5-FI-FA-MTX therapeutic used equals 55.0 mg/kg and is equivalent to a 5.0 mg/kg total cumulative dose of free methotrexate (FIG. 29). The therapeutic dose of the conjugate was compared with three cumulative doses of free methotrexate equivalent to 33.3, 21.7, and 5.0 mg/kg accumulated in 10 to 15 injections based on mouse survival. Saline and the conjugate without methotrexate (G5-FI-FA) were used as controls.

[1] = mouse, in vivo
Method: (§1) Delivery of targeted nanoparticle therapeutic. Twice weekly, SCID mice with s.c. KB xenografts, starting on day 4 after tumor implantation, received via the tail vein an injection of either targeted or nontargeted conjugate containing methotrexate, a conjugate without methotrexate, free methotrexate, or saline as a control. The compounds were delivered in a 0.2 mL volume of saline per 20 g of mouse. The single dose of methotrexate delivered each time equaled 0.33 mg/kg. The higher doses of 1.67 and 3.33 mg/kg free methotrexate were also tested. The conjugates were delivered at equimolar concentration of methotrexate calculated based on the number of methotrexate molecules present in a nanoparticle. The conjugate without methotrexate was delivered at equimolar concentration of dendrimer. In the initial trial, six groups of mice with five mice in each group received up to 15 injections. In the follow-up trial, mice received up to 28 injections dependent on their survival. The body weights of the mice were monitored throughout the experiment as an indication of adverse effects of the drug. Histopathology of multiple organs was done at the termination of each trial and each time mouse had to be euthanized due to toxic effects or tumor burden. Tissues from lung, heart, liver, pancreas, spleen, kidney, and tumor were analyzed.
Toxicity of dendrimer conjugates. […]

[2] = Toxicity of dendrimer conjugates and free methotrexate in mice; details: cumulative doses 33.3 and 21.7 mg/kg
Method: as §1
Toxicity of dendrimer conjugates. […]

SMILES | reversal of MTX-induced growth-arrest by free FA (KB cells; 150 nM FA with 150 nM MTX, 24 h, then 6 d fresh medium, total cell protein) | increase of cell growth above that of the control cells (KB cells; 50 μM free FA with conjugate or free MTX 24 h, then 5 days, XTT) [%] | growth inhibition by XTT assay (KB cells; 1, 2 or 3 days) | inhibition of cell growth (KB cells; FA-deficient medium, time course and dose dependence (FIGS. 21 and 22)) | growth inhibition compared with equimolar MTX in G5-FITC-FA-MTX (KB cells; below 1 μM) | effect on tumor growth (s.c. human KB xenografts; cumulative dose equivalent to 5.0 mg/kg methotrexate (or equimolar dendrimer)) | effect on tumor growth (s.c. human KB xenografts; cumulative doses 33.3 and 21.7 mg/kg) | day of trial by which all mice died (s.c. human KB xenografts; second 99-day trial) [days] | survivors at the termination of the trial (s.c. human KB xenografts; second 99-day trial) | histopathology of the liver [1] | day of trial by which dose became lethal [2] [days]
Nc1nc2ncc(CNc3ccc(C(=O)N[C@@H](CCC(=O)O)C(=O)O)cc3)nc2c(=O)[nH]1 [FA, folic acid] | almost completely reversed the growth-arrest | 20 |  |  |  |  |  |  |  |  | 
CN(Cc1cnc2nc(N)nc(N)c2n1)c1ccc(C(=O)N[C@@H](CCC(=O)O)C(=O)O)cc1 [MTX, methotrexate] |  |  | time-dependent cytotoxicity | inhibited cell growth in a time- and dose-dependent fashion | higher | no effect on tumor growth | affecting tumor growth | ≤ 66 | no mice surviving | advanced liver lesions, collections of inflammatory cells, and periportal inflammation | 32 to 36
